Columns and labels:
AMARE = test: Post-emergence herbicidal action against AMARE; assay type: in vivo, Amaranthus retroflexus; settings: application rate 80 g/ha, rated visually about 3 weeks after treatment
Description: (§1) [table] 2. Post-emergence herbicidal action against harmful plants and crop plant compatibility Seeds of monocotyledonous and dicotyledonous weeds and crop plants are placed in sandy loam in plastic or wood-fibre pots, covered with soil and cultivated in a greenhouse under controlled growth conditions. 2 to 3 weeks after sowing, the test plants are treated at the one-leaf stage. The compounds of the invention, formulated in the form of wettable powders (WP) or as emulsion concentrates (EC), are then sprayed onto the green parts of the plants as aqueous suspension or emulsion with addition of 0.5% additive at a water application rate of 600 l/ha (converted). After the test plants have been kept in the greenhouse under optimum growth conditions for about 3 weeks, the activity of the preparations is rated visually in comparison to untreated controls. For example, 100% activity=the plants have died, 0% activity=like control plants.

VIOTR = test: Post-emergence herbicidal action against VIOTR; assay type: in vivo, Viola tricolor; settings: application rate 80 g/ha, rated visually about 3 weeks after treatment
Description: as §1

ALOMY = test: Post-emergence herbicidal action against ALOMY; assay type: in vivo, Alopecurus myosuroides; settings: application rate 80 g/ha, rated visually after about 3 weeks
Description: as §1

AVEFA = test: Post-emergence herbicidal action against AVEFA; assay type: in vivo, Avena fatua; settings: application rate 80 g/ha, rated visually after about 3 weeks
Description: as §1

LOLRI = test: Post-emergence herbicidal action against LOLRI; assay type: in vivo, Lolium rigidum; settings: application rate 80 g/ha, rated visually after about 3 weeks
Description: as §1

SETVI = test: Post-emergence herbicidal action against SETVI; assay type: in vivo, Setaria viridis; settings: application rate 80 g/ha, rated visually after about 3 weeks
Description: as §1

ABUTH = test: Post-emergence herbicidal action against ABUTH; assay type: in vivo, Abutilon theophrasti; settings: application rate 80 g/ha, rated visually about 3 weeks after treatment
Description: as §1

POLCO = test: Post-emergence herbicidal action against POLCO; assay type: in vivo, Polygonum convolvulus; settings: application rate 80 g/ha, rated visually about 3 weeks after treatment
Description: as §1

STEME = test: Post-emergence herbicidal action against STEME; assay type: in vivo, Stellaria media; settings: application rate 80 g/ha, rated visually about 3 weeks after treatment
Description: as §1

VERPE = test: Post-emergence herbicidal action against VERPE; assay type: in vivo, Veronica persica; settings: application rate 80 g/ha
Description: as §1

HORMU = test: Post-emergence herbicidal action against HORMU; assay type: in vivo, Hordeum murinum; settings: application rate 80 g/ha
Description: as §1

ECHCG = test: Post-emergence herbicidal action against ECHCG; assay type: in vivo, Echinochloa crus-galli; settings: application rate 80 g/ha, rated visually after about 3 weeks
Description: as §1

PHBPU = test: Post-emergence herbicidal action against PHBPU; assay type: in vivo, Pharbitis purpurea; settings: application rate 80 g/ha, rated visually about 3 weeks after treatment
Description: as §1

CC(C)(NC(=O)C1C=CC(NC(=O)C2(C(F)(F)F)CC(c3cc(F)cc(F)c3)=NO2)C1)C(F)(F)F (stereo not shown) [II-38]
Herbicidal action against [%] AMARE (AMARE): 90% | Herbicidal action against [%] VIOTR (VIOTR): 80%

COC(=O)C(NC(=O)C1C=CC(NC(=O)C2(C(F)(F)F)CC(c3cc(F)cc(F)c3)=NO2)C1)C(C)C (mixture of isomers) [II-37]
Herbicidal action against [%] ALOMY (ALOMY): 80% | Herbicidal action against [%] AVEFA (AVEFA): 100% | Herbicidal action against [%] LOLRI (LOLRI): 100% | Herbicidal action against [%] SETVI (SETVI): 80% | Herbicidal action against [%] ABUTH (ABUTH): 80% | Herbicidal action against [%] AMARE (AMARE): 90% | Herbicidal action against [%] POLCO (POLCO): 100% | Herbicidal action against [%] STEME (STEME): 90% | Herbicidal action against [%] VIOTR (VIOTR): 90% | Herbicidal action against [%] VERPE (VERPE): 90% | Herbicidal action against [%] HORMU (HORMU): 90%

Cc1cc(C)cc(C2=NOC(C(=O)NC3C=CC(C(=O)OCC(F)(F)F)C3)(C(F)(F)F)C2)c1 (mixture of isomers) [Example I-057]
Herbicidal action against [%] ALOMY (ALOMY): 90% | Herbicidal action against [%] ECHCG (ECHCG): 80% | Herbicidal action against [%] LOLRI (LOLRI): 90% | Herbicidal action against [%] POLCO (POLCO): 80% | Herbicidal action against [%] STEME (STEME): 80% | Herbicidal action against [%] VIOTR (VIOTR): 80% | Herbicidal action against [%] VERPE (VERPE): 80% | Herbicidal action against [%] HORMU (HORMU): 80%

CCOC(=O)[C@@H]1C=C[C@H](NC(=O)C2(C(F)(F)F)CC(c3ccccc3)=NO2)C1 (stereo partly shown) [Example I-021]
Herbicidal action against [%] ALOMY (ALOMY): 90% | Herbicidal action against [%] AVEFA (AVEFA): 100% | Herbicidal action against [%] ECHCG (ECHCG): 80% | Herbicidal action against [%] LOLRI (LOLRI): 90% | Herbicidal action against [%] SETVI (SETVI): 90% | Herbicidal action against [%] ABUTH (ABUTH): 80% | Herbicidal action against [%] AMARE (AMARE): 90% | Herbicidal action against [%] PHBPU (PHBPU): 80% | Herbicidal action against [%] POLCO (POLCO): 90% | Herbicidal action against [%] STEME (STEME): 80% | Herbicidal action against [%] VERPE (VERPE): 80% | Herbicidal action against [%] HORMU (HORMU): 90%

O=C(O)C1=C[C@@H](NC(=O)[C@@]2(C(F)(F)F)CC(c3cc(F)cc(F)c3)=NO2)CC1 [Example V-04]
Herbicidal action against [%] ALOMY (ALOMY): 100% | Herbicidal action against [%] ECHCG (ECHCG): 80% | Herbicidal action against [%] LOLRI (LOLRI): 90% | Herbicidal action against [%] SETVI (SETVI): 80% | Herbicidal action against [%] ABUTH (ABUTH): 80% | Herbicidal action against [%] AMARE (AMARE): 80% | Herbicidal action against [%] STEME (STEME): 90% | Herbicidal action against [%] VIOTR (VIOTR): 80% | Herbicidal action against [%] VERPE (VERPE): 80% | Herbicidal action against [%] HORMU (HORMU): 90%

COCCOC(=O)C1C=CC(NC(=O)C2(C(F)(F)F)CC(c3cccc(C#N)c3)=NO2)C1 (mixture of isomers) [Example I-086]
Herbicidal action against [%] ALOMY (ALOMY): 90% | Herbicidal action against [%] AVEFA (AVEFA): 90% | Herbicidal action against [%] ECHCG (ECHCG): 90% | Herbicidal action against [%] LOLRI (LOLRI): 90% | Herbicidal action against [%] SETVI (SETVI): 90% | Herbicidal action against [%] ABUTH (ABUTH): 90% | Herbicidal action against [%] AMARE (AMARE): 90% | Herbicidal action against [%] PHBPU (PHBPU): 80% | Herbicidal action against [%] POLCO (POLCO): 80% | Herbicidal action against [%] STEME (STEME): 80% | Herbicidal action against [%] VERPE (VERPE): 90% | Herbicidal action against [%] HORMU (HORMU): 100%

C=CC1(C(=O)N[C@H]2CC=C(C(=O)OC(C)C)C2)CC(c2cc(F)cc(F)c2)=NO1 (stereo partly shown) [III-13]
Herbicidal action against [%] ALOMY (ALOMY): 90% | Herbicidal action against [%] AVEFA (AVEFA): 90% | Herbicidal action against [%] ECHCG (ECHCG): 90% | Herbicidal action against [%] LOLRI (LOLRI): 100% | Herbicidal action against [%] SETVI (SETVI): 80% | Herbicidal action against [%] ABUTH (ABUTH): 80% | Herbicidal action against [%] AMARE (AMARE): 90% | Herbicidal action against [%] PHBPU (PHBPU): 90% | Herbicidal action against [%] POLCO (POLCO): 80% | Herbicidal action against [%] STEME (STEME): 90% | Herbicidal action against [%] VERPE (VERPE): 80% | Herbicidal action against [%] HORMU (HORMU): 90%

C=CC1(C(=O)NC2C=CC(C(=O)N3CCCO3)C2)CC(c2cc(F)cc(F)c2)=NO1 (stereo not shown) [II-28]
Herbicidal action against [%] ALOMY (ALOMY): 100% | Herbicidal action against [%] AVEFA (AVEFA): 80% | Herbicidal action against [%] ECHCG (ECHCG): 90% | Herbicidal action against [%] LOLRI (LOLRI): 90% | Herbicidal action against [%] SETVI (SETVI): 80% | Herbicidal action against [%] ABUTH (ABUTH): 90% | Herbicidal action against [%] AMARE (AMARE): 80% | Herbicidal action against [%] PHBPU (PHBPU): 90% | Herbicidal action against [%] POLCO (POLCO): 80% | Herbicidal action against [%] STEME (STEME): 90% | Herbicidal action against [%] VERPE (VERPE): 90% | Herbicidal action against [%] HORMU (HORMU): 80%

C=CC1(C(=O)NC2C=CC(C(=O)O)C2)CC(c2cc(F)cc(F)c2)=NO1 (stereo not shown) [Example I-014]
Herbicidal action against [%] ALOMY (ALOMY): 90% | Herbicidal action against [%] AVEFA (AVEFA): 90% | Herbicidal action against [%] ECHCG (ECHCG): 90% | Herbicidal action against [%] LOLRI (LOLRI): 90% | Herbicidal action against [%] SETVI (SETVI): 80% | Herbicidal action against [%] AMARE (AMARE): 90% | Herbicidal action against [%] POLCO (POLCO): 80% | Herbicidal action against [%] STEME (STEME): 90% | Herbicidal action against [%] VIOTR (VIOTR): 90% | Herbicidal action against [%] VERPE (VERPE): 90% | Herbicidal action against [%] HORMU (HORMU): 80%

CC1(C(=O)NC2C=CC(C(=O)O)C2)CC(c2cccc(C#N)c2)=NO1 (mixture of isomers) [Example I-070]
Herbicidal action against [%] ALOMY (ALOMY): 90% | Herbicidal action against [%] AVEFA (AVEFA): 100% | Herbicidal action against [%] ECHCG (ECHCG): 90% | Herbicidal action against [%] LOLRI (LOLRI): 80% | Herbicidal action against [%] SETVI (SETVI): 90% | Herbicidal action against [%] ABUTH (ABUTH): 80% | Herbicidal action against [%] AMARE (AMARE): 90% | Herbicidal action against [%] PHBPU (PHBPU): 80% | Herbicidal action against [%] POLCO (POLCO): 90% | Herbicidal action against [%] STEME (STEME): 80% | Herbicidal action against [%] VERPE (VERPE): 80% | Herbicidal action against [%] HORMU (HORMU): 90%

Cc1cc(Cl)cc(C2=NOC(C(=O)N[C@H]3C=C[C@@H](C(=O)OCC(F)(F)F)C3)(C(F)(F)F)C2)c1 (stereo partly shown) [Example I-029]
Herbicidal action against [%] ALOMY (ALOMY): 90% | Herbicidal action against [%] AVEFA (AVEFA): 80% | Herbicidal action against [%] LOLRI (LOLRI): 90% | Herbicidal action against [%] SETVI (SETVI): 80% | Herbicidal action against [%] AMARE (AMARE): 90% | Herbicidal action against [%] POLCO (POLCO): 80% | Herbicidal action against [%] VIOTR (VIOTR): 80% | Herbicidal action against [%] VERPE (VERPE): 90% | Herbicidal action against [%] HORMU (HORMU): 80%

CCCS(=O)(=O)NC(=O)C1C=CC(NC(=O)C2(C(F)(F)F)CC(c3cc(F)cc(F)c3)=NO2)C1 (mixture of isomers) [II-33]
Herbicidal action against [%] AVEFA (AVEFA): 100% | Herbicidal action against [%] ECHCG (ECHCG): 80% | Herbicidal action against [%] LOLRI (LOLRI): 90% | Herbicidal action against [%] SETVI (SETVI): 80% | Herbicidal action against [%] ABUTH (ABUTH): 80% | Herbicidal action against [%] AMARE (AMARE): 90% | Herbicidal action against [%] POLCO (POLCO): 90% | Herbicidal action against [%] STEME (STEME): 80% | Herbicidal action against [%] VIOTR (VIOTR): 90% | Herbicidal action against [%] VERPE (VERPE): 80% | Herbicidal action against [%] HORMU (HORMU): 90%

COCCOC(=O)C1C=CC(NC(=O)C2(C(F)(F)F)CC(c3cc(F)cc(C#N)c3)=NO2)C1 (stereo not shown) [Example I-099]
Herbicidal action against [%] ALOMY (ALOMY): 90% | Herbicidal action against [%] AVEFA (AVEFA): 90% | Herbicidal action against [%] ECHCG (ECHCG): 80% | Herbicidal action against [%] LOLRI (LOLRI): 100% | Herbicidal action against [%] SETVI (SETVI): 90% | Herbicidal action against [%] AMARE (AMARE): 80% | Herbicidal action against [%] POLCO (POLCO): 80% | Herbicidal action against [%] STEME (STEME): 80% | Herbicidal action against [%] VIOTR (VIOTR): 80% | Herbicidal action against [%] VERPE (VERPE): 80% | Herbicidal action against [%] HORMU (HORMU): 80%

From patent publication US12319664B2, “Herbicidally active 3-phenylisoxazoline-5-carboxamides of cyclopentenylcarboxylic acid derivatives” (Bayer Aktiengesellschaft, priority 2018, dated 2025)
